Laboratory results published in patent US8916499B2, “Herbicidal compositions comprising 4-amino-3-chloro-5-fluoro-6-(4-chloro-2-fluoro-3-methoxyphenyl) pyridine-2-carboxylic acid or a derivative thereof and a protoporphyrinogen oxidase inhibitor” (Dow AgroSciences LLC, priority 2012, dated 2014).

How the values were obtained:
CYPIR = assay: Postemergence foliar-applied weed control, direct seeded rice, greenhouse (Example I); assay type: in vivo, Cyperus iria L.
ECHOR = assay: In-water applied weed control, transplanted paddy rice, greenhouse (Example II); assay type: in vivo, Echinochloa oryzoides (Ard.) Fritsch
SCPMA = assay: as above; assay type: in vivo; details: Bifenox (Fox ®) 180 g ai/ha alone
IPOHE = assay: Postemergence foliar-applied weed control, direct seeded rice, greenhouse (Example I); assay type: in vivo, Ipomoea hederacea Jacq.
PAPRH = assay: Postemergence foliar herbicidal activity of mixtures in cereal crops, greenhouse (Example III); assay type: in vivo, Papaver rhoeas L.; details: foliar-applied
Description: Seeds of the desired test plant species were planted in Sun Gro MetroMix® 306 planting mixture, which typically has a pH of 6.0 to 6.8 and an organic matter content of about 30 percent, in plastic pots with a surface area of 103.2 square centimeters (cm^2). When required to ensure good germination and healthy plants, a fungicide treatment and/or other chemical or physical treatment was applied. The plants were grown for 7-36 days in a greenhouse with an approximate 14 hour photoperiod which was maintained at about 18° C. during the day and about 17° C. during the night. Nutrients and water were added on a regular basis and supplemental lighting was provided with overhead metal halide 1000-Watt lamps as necessary. The plants were employed for testing when they reached the second or third true leaf stage.
Treatments consisted of the benzyl ester of 4-amino-3-chloro-5-fluoro-6-(4-chloro-2-fluoro-3-methoxy-phenyl)pyridine-2-carboxylic acid (Compound A), formulated as an SC, a second cereal herbicide alone and then both in combination.
Other herbicidal components were applied on an active ingredient basis and included PSII-inhibiting herbicides.
Measured aliquots of benzyl ester of 4-amino-3-chloro-5-fluoro-6-(4-chloro-2-fluoro-3-methoxy-phenyl)pyridine-2-carboxylic acid (Compound A) were placed in 25 milliliter (mL) glass vials and diluted in a volume of 1.25% (v/v) Agri-Dex® crop oil concentrate to obtain stock solutions. Compound requirements are based upon a 12 mL application volume at a rate of 187 liters per hectare (L/ha). Spray solutions of the second cereal herbicide and experimental compound mixtures were prepared by adding the stock solutions to the appropriate amount of dilution solution to form 12 mL spray solution with active ingredients in two- and three-way combinations. Formulated compounds were applied to the plant material with an overhead Mandel track sprayer equipped with an 8002E nozzle calibrated to deliver 187 L/ha over an application area of 0.503 square meters (m^2) at a spray height of 18 inches (46 cm) above average plant canopy. Control plants were sprayed in the same manner with the solvent blank.
The treated plants and control plants were placed in a greenhouse as described above and watered by sub-irrigation to prevent wash-off of the test compounds. After 20-22 days, the condition of the test plants as compared with that of the control plants was determined visually and scored on a scale of 0 to 100 percent where 0 corresponds to no injury and 100 corresponds to complete kill.
Colby's equation was used to determine the herbicidal effects expected from the mixtures (Colby, S. R. 1967. Calculation of the synergistic and antagonistic response of herbicide combinations. Weeds 15:20-22.).
The following equation was used to calculate the expected activity of mixtures containing two active ingredients, A and B: Expected=A+B−(A×B/100)

BRAPP = assay: Postemergence foliar-applied weed control, direct seeded rice, greenhouse (Example I); assay type: in vivo, Brachiaria platyphylla (Griseb.) Nash; details: g ae/ha Compound A Acid+g ai/ha pyraclonil: r11 4.38+0, r12 0+33.75, r13 0+67.5, r14 0+135, r15 4.38+33.75, r16 4.38+67.5, r17 4.38+135
ECHCG = assay: In-water applied weed control, transplanted paddy rice, greenhouse (Example II); assay type: in vivo, Echinochloa crus-galli (L.) P. Beauv.
ECHCO = assay: Postemergence foliar-applied weed control, direct seeded rice, greenhouse (Example I); assay type: in vivo, Echinochloa colona (L.) Link; details: g ae/ha Compound A Acid+g ai/ha saflufenacil: r24 4.38+0, r25 0+5, r26 0+10, r27 0+20, r28 4.38+5, r29 4.38+10, r30 4.38+20
LEFCH [1] = assay: In-water applied weed control, transplanted paddy rice, greenhouse (Example II); assay type: in vivo, Leptochloa chinensis (L.) Nees
FIMMI = assay: as above; assay type: in vivo, Fimbristylis miliacea (L.) Vahl; details: 8.75 g ae/ha alone
SCPJU = assay: as above; assay type: in vivo, Schoenoplectus juncoides (Roxb.) Palla
CYPRO = assay: as above; assay type: in vivo, Cyperus rotundus L.
LEFCH [2] = assay: Postemergence foliar-applied weed control, direct seeded rice, greenhouse (Example I); assay type: in vivo, Leptochloa chinensis (L.) Nees; details: g ae/ha Compound A Acid+g ai/ha carfentrazone-ethyl: r39 19.4+0, r40 0+28, r41 19.4+28

## COC(=O)c1cc(Oc2ccc(Cl)cc2Cl)ccc1[N+](=O)[O-] [Bifenox, methyl 5-(2,4-dichlorophenoxy)-2-nitrobenzoate]
CYPIR; g ae/ha Compound A Benzyl Ester+g ai/ha bifenox (Fox ®): r17 8+0, r18 0+180, r19 0+360, r20 0+720, r21 8+180, r22 8+360, r23 8+720
  Visual Weed Control (%) - 21 DAA CYPIR Obs: 0%
CYPIR; g ae/ha Compound A Benzyl Ester+g ai/ha bifenox (technical): r23 8+0, r24 16+0, r25 0+180, r26 0+720, r27 8+180, r28 16+180, r29 8+720, r30 16+720
  Visual Weed Control (%) - 22 DAA CYPIR Obs: 0%
ECHOR; Bifenox (technical) 720 g ai/ha alone
  Visual Weed Control (%) - 21 DAA ECHOR Obs: 40%
SCPMA
  Visual Weed Control (%) - 21 DAA SCPMA Obs: 40%
IPOHE; g ae/ha Compound A Benzyl Ester+g ai/ha bifenox (Fox ®): r11 16+0, r12 32+0, r13 0+180, r14 16+180, r15 32+180
  Visual Weed Control (%) - 21 DAA IPOHE Obs: 55%
PAPRH; 180 g ai/ha alone
  Visual Weed Control (%) - 21 DAA PAPRH Obs: 5%
PAPRH; 360 g ai/ha alone
  Visual Weed Control (%) - 21 DAA PAPRH Obs: 8%
PAPRH; 780 g ai/ha alone
  Visual Weed Control (%) - 21 DAA PAPRH Obs: 8%

## COc1c(Cl)ccc(-c2nc(C(=O)O)c(Cl)c(N)c2F)c1F [Compound A Acid, 4-amino-3-chloro-5-fluoro-6-(4-chloro-2-fluoro-3-methoxy-phenyl)pyridine-2-carboxylic acid]
BRAPP
  Visual Weed Control (%) - 20 DAA BRAPP Obs: 10%
ECHCG; 8.75 g ae/ha alone
  Visual Weed Control (%) - 21 DAA ECHCG Obs: 15%
ECHCG; 17.5 g ae/ha alone
  Visual Weed Control (%) - 20 DAA ECHCG Obs: 50%
  Visual Weed Control (%) - 21 DAA ECHCG Obs: 20%
ECHCG; 35 g ae/ha alone
  Visual Weed Control (%) - 20 DAA ECHCG Obs: 95%
  Visual Weed Control (%) - 21 DAA ECHCG Obs: 95%
CYPIR; g ae/ha Compound A Acid+g ai/ha saflufenacil: r24 4.38+0, r25 0+5, r26 0+10, r27 0+20, r28 4.38+5, r29 4.38+10, r30 4.38+20
  Visual Weed Control (%) - 20 DAA CYPIR Obs: 30%
ECHCO
  Visual Weed Control (%) - 20 DAA ECHCO Obs: 40%
ECHOR; g ae/ha Compound A Acid+g ai/ha carfentrazone-ethyl: r28 42.4+0, r29 0+215, r30 42.4+215
  Visual Weed Control (%) - 19 DAA ECHOR Obs: 15%
LEFCH [1]; 17.5 g ae/ha alone
  Visual Weed Control (%) - 20 DAA LEFCH Obs: 0%
LEFCH [1]; 35 g ae/ha alone
  Visual Weed Control (%) - 20 DAA LEFCH Obs: 30%
  Visual Weed Control (%) - 21 DAA LEFCH Obs: 5%
LEFCH [1]; 70 g ae/ha alone
  Visual Weed Control (%) - 21 DAA LEFCH Obs: 23%
FIMMI
  Visual Weed Control (%) - 21 DAA FIMMI Obs: 0%
IPOHE; first section, g ae/ha Compound A Acid+g ai/ha oxadiazon: r12 8.75+0, r13 0+31.25, r14 0+62.5, r15 0+125, r16 8.75+31.25, r17 8.75+62.5, r18 8.75+125
  Visual Weed Control (%) - 20 DAA IPOHE Obs: 10%
IPOHE; g ae/ha Compound A Acid+g ai/ha pyraclonil: r53 35+0, r54 0+270, r55 35+270
  Visual Weed Control (%) - 21 DAA IPOHE Obs: 45%
SCPJU; 8.75 g ae/ha alone
  Visual Weed Control (%) - 21 DAA SCPJU Obs: 40%
SCPJU; 17.5 g ae/ha alone
  Visual Weed Control (%) - 21 DAA SCPJU Obs: 60%
SCPJU; 35 g ae/ha alone
  Visual Weed Control (%) - 21 DAA SCPJU Obs: 95%
CYPRO; 8.75 g ae/ha alone
  Visual Weed Control (%) - 20 DAA CYPRO Obs: 0%
CYPRO; 17.5 g ae/ha alone
  Visual Weed Control (%) - 20 DAA CYPRO Obs: 20%
CYPRO; 35 g ae/ha alone
  Visual Weed Control (%) - 20 DAA CYPRO Obs: 80%
  Visual Weed Control (%) - 21 DAA CYPRO Obs: 70%
LEFCH [2]
  Visual Weed Control (%) - 19 DAA LEFCH Obs: 5%
